Structures can show the parent of a compound that is named as a salt. Where two headings read alike, the source gives them in different places.
Assays:
Format in all cases: biochemical
BTK-WT = target: T1, BTK-WT (Homo sapiens, UniProt Q06187); assay: Btk in vitro inhibitory activity (one of Method A TR-FRET, Method B electrophoretic mobility shift, Method C radiometric filter binding); conditions: read-out: BTK-WT (IC50)
T1 construct: purified from insect cells as a full-length construct containing an N-terminal 6X-His tag; His6 (N); made in house; host or cells: insect cells (baculovirus Sf21 in Method B)

JAK3 = target: T2, JAK3 (Homo sapiens, UniProt P52333); assay: Inhibition of a panel of kinases, in vitro HotSpot kinase assay: JAK3; conditions: 1 μM ATP, read-out: JAK3 (IC50)
T2 sequence (P52333 1-1124): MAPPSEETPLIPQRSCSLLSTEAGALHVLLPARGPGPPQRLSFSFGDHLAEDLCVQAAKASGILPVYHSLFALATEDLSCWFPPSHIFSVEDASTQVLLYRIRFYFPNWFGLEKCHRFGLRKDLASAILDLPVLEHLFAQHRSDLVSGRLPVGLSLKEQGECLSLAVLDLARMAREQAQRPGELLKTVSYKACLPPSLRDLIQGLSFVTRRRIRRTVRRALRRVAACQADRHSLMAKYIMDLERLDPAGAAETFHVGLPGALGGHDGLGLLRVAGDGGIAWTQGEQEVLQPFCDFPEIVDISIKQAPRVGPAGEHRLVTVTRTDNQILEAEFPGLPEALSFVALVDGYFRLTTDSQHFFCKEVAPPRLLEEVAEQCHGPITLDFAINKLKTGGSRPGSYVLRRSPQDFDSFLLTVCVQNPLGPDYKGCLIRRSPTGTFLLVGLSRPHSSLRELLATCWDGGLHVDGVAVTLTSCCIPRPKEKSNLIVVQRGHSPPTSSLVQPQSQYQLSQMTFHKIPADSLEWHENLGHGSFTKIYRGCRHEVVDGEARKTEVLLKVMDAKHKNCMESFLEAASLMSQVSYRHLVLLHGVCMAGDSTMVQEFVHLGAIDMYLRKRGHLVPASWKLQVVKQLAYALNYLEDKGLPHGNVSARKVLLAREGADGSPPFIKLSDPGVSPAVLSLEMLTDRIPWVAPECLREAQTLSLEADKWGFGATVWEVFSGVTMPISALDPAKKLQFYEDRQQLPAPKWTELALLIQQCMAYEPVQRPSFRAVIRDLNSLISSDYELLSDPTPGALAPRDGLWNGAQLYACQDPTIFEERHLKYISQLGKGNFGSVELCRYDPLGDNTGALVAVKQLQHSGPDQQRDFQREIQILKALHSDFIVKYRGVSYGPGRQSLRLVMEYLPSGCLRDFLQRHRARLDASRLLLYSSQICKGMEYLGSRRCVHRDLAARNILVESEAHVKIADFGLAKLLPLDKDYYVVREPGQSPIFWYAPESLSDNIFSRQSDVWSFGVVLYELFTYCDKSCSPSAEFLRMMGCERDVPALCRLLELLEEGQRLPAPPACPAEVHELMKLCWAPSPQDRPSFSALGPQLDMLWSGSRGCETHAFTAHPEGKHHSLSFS

LCK = LCK (Homo sapiens, UniProt P06239); assay: Inhibition of a panel of kinases, in vitro HotSpot kinase assay: LCK; conditions: 1 μM ATP, read-out: LCK (IC50)
LCK, sequence (P06239 whole entry): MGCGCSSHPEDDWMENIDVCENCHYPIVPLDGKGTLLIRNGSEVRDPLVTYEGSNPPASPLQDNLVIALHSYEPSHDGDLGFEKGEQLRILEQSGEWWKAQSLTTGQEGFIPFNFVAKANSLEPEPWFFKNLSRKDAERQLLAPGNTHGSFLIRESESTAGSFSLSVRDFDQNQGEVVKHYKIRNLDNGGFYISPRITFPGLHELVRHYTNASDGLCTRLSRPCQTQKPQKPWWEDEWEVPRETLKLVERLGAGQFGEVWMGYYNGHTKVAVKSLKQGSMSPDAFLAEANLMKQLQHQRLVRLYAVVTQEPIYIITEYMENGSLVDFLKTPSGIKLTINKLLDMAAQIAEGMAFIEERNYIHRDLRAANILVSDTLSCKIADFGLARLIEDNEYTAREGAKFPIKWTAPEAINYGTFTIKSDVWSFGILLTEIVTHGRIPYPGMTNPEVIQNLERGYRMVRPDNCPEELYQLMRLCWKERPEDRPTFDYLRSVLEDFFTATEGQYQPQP

T1 sequence (Q06187 whole entry): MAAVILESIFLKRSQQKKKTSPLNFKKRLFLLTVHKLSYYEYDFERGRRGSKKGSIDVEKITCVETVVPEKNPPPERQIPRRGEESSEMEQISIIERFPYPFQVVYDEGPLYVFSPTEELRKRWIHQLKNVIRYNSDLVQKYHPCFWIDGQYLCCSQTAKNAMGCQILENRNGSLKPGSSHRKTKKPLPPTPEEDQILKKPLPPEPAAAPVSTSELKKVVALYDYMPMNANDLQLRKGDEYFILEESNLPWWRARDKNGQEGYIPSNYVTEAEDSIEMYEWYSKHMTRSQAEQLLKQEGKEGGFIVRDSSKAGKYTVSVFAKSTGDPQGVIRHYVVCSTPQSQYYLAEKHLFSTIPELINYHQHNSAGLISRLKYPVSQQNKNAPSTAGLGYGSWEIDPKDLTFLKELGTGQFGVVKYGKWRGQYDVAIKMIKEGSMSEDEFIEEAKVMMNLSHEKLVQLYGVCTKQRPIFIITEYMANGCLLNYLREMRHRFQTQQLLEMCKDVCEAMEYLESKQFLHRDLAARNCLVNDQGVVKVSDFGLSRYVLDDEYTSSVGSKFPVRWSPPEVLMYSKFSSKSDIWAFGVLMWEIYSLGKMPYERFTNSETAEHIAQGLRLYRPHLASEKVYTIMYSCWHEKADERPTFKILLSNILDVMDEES

In the case of Cc1cc(Nc2cc(N3CCC[C@@H](NC(=O)c4ccccc4)C3)cnc2C(N)=O)sn1 [Example A-61, 5-[(3R)-3-benzamidopiperidin-1-yl]-3-[(3-methyl-1,2-thiazol-5-yl)amino]pyridine-2-carboxamide], the IC50 (BTK-WT; Table 10, Formula A-I) is reported as 100 to 1000 nM, the IC50 (JAK3; Table 10, Formula A-I) is reported as 1000 to 10000 nM and the IC50 (LCK; Table 10, Formula A-I) is reported as 100 to 1000 nM.
For Cc1cc(Nc2cc(N3CCC[C@@H](NC(=O)c4ccc(N(C)C)cc4)C3)cnc2C(N)=O)sn1 [Example A-62, 5-[(3R)-3-[4-(dimethylamino)benzamido]piperidin-1-yl]-3-[(3-methyl-1,2-thiazol-5-yl)amino]pyridine-2-carboxamide], the IC50 (BTK-WT; Table 10, Formula A-I) was at most 100 nM, the IC50 (JAK3; Table 10, Formula A-I) was over 10000 nM and the IC50 (LCK; Table 10, Formula A-I) was over 10000 nM.
For Cc1cc(Nc2cc(N3CCC[C@@H](NC(=O)N(C)C)C3)cnc2C(N)=O)sn1 [Example A-64, 5-[(3R)-3-[(dimethylcarbamoyl)amino]piperidin-1-yl]-3-[(3-methyl-1,2-thiazol-5-yl)amino]pyridine-2-carboxamide], the IC50 (BTK-WT; Table 10, Formula A-I) was 100 to 1000 nM, the IC50 (JAK3; Table 10, Formula A-I) was 1000 to 10000 nM and the IC50 (LCK; Table 10, Formula A-I) was over 10000 nM.
Cc1cc(Nc2nc(N3CCC(CNC(=O)N(C)C)CC3)cnc2C(N)=O)sn1 [Example A-75, 5-(4-{[(dimethylcarbamoyl)amino]methyl}piperidin-1-yl)-3-[(3-methyl-1,2-thiazol-5-yl)amino]pyrazine-2-carboxamide] was tested, and the IC50 (BTK-WT; Table 10, Formula A-I) was at most 100 nM, the IC50 (JAK3; Table 10, Formula A-I) was under 100 nM and the IC50 (LCK; Table 10, Formula A-I) was 100 to 1000 nM.
With Cc1cc(Nc2nc(N3CCC(CNC(=O)c4ccccc4)CC3)cnc2C(N)=O)sn1 [Example A-76, 3-[(3-methyl-1,2-thiazol-5-yl)amino]-5-{4-[(phenylformamido)methyl]piperidin-1-yl}pyrazine-2-carboxamide] the IC50 (BTK-WT; Table 10, Formula A-I) was at most 100 nM, the IC50 (JAK3; Table 10, Formula A-I) was under 100 nM and the IC50 (LCK; Table 10, Formula A-I) was 100 to 1000 nM.
Work on Cc1cc(Nc2nc(N3CCC(CNC(=O)c4ccc(N(C)C)cc4)CC3)cnc2C(N)=O)sn1 [Example A-77, 5-[4-({[4-(dimethylamino)phenyl]formamido}methyl)piperidin-1-yl]-3-[(3-methyl-1,2-thiazol-5-yl)amino]pyrazine-2-carboxamide] yielded an IC50 (BTK-WT; Table 10, Formula A-I) of at most 100 nM, an IC50 (JAK3; Table 10, Formula A-I) of under 100 nM and an IC50 (LCK; Table 10, Formula A-I) of 100 to 1000 nM.
With C=CC(=O)N[C@@H]1CCCN(c2cnc(C(N)=O)c(Nc3ccc(C4CCN(C5CCCC5)CC4)cc3)n2)C1 [Example A-84, (R)-5-(3-acrylamidopiperidin-1-yl)-3-(4-(1-cyclopentylpiperidin-4-yl)phenylamino)pyrazine-2-carboxamide] the IC50 (BTK-WT; Table 10, Formula A-I) was at most 100 nM, the IC50 (JAK3; Table 10, Formula A-I) was under 100 nM and the IC50 (LCK; Table 10, Formula A-I) was under 100 nM.
C=CC(=O)N[C@@H]1CCCN(c2cnc(C(N)=O)c(Nc3ccc(C4CCN(C5CCCC5)CC4)cc3)n2)[C@@H]1C [Example A-85, 5-((2R,3R)-3-acrylamido-2-methylpiperidin-1-yl)-3-(4-(1-cyclopentylpiperidin-4-yl)phenylamino)pyrazine-2-carboxamide] was tested, and the IC50 (BTK-WT; Table 10, Formula A-I) was at most 100 nM, the IC50 (JAK3; Table 10, Formula A-I) was under 100 nM and the IC50 (LCK; Table 10, Formula A-I) was under 100 nM.
Cc1cc(Nc2nc(N[C@H]3CC[C@H](NC(=O)c4ccc(N(C)C)cc4)CC3)cnc2C(N)=O)sn1 [Example B-1, 3-[(3-methyl-1,2-thiazol-5-yl)amino]-5-{[(1r,4r)-4-[4-(dimethylamino)benzamido]cyclohexyl]amino}pyrazine-2-carboxamide] gave an IC50 (BTK-WT; Table 11, Formula B-I) of at most 100 nM, an IC50 (JAK3; Table 11, Formula B-I) of 100 to 1000 nM and an IC50 (LCK; Table 11, Formula B-I) of under 100 nM.
With Cc1cc(Nc2nc(NC3CCC(NC(=O)c4ccc(N(C)C)cc4)CC3)cnc2C(N)=O)sn1 (stereo not drawn) [Example B-5, 5-({4-[4-(dimethylamino)benzamido]cyclohexyl}amino)-3-[(3-methyl-1,2-thiazol-5-yl)amino]pyrazine-2-carboxamide] the IC50 (BTK-WT; Table 11, Formula B-I) was at most 100 nM, the IC50 (JAK3; Table 11, Formula B-I) was under 100 nM and the IC50 (LCK; Table 11, Formula B-I) was 100 to 1000 nM.
CN1CCN(C(=O)c2ccc(Nc3nc(NC4CCC(NC(=O)N(C)C)CC4)cnc3C(N)=O)cc2)CC1 (stereo not drawn) [Example B-13, 5-(4-(3,3-dimethylureido)cyclo-hexylamino)-3-(4-(4-methylpiperazine-1-carbonyl)phenylamino) pyrazine-2-carboxamide] was tested, and the IC50 (BTK-WT; Table 11, Formula B-I) was at most 100 nM, the IC50 (JAK3; Table 11, Formula B-I) was 100 to 1000 nM and the IC50 (LCK; Table 11, Formula B-I) was under 100 nM.
In the case of CN1CCN(C(=O)c2ccc(Nc3nc(N[C@H]4CC[C@H](NC(=O)c5ccc(C6CC6)cc5F)CC4)cnc3C(N)=O)cc2)CC1 [Example B-14, 5-((1r,4r)-4-(4-cyclo-propyl-2-fluoro-benzamido)cyclohexyl-amino)-3-(4-(4-methylpiperazine-1-carbonyl)phenylamino) pyrazine-2-carboxamide], the IC50 (BTK-WT; Table 11, Formula B-I) is reported as at most 100 nM, the IC50 (JAK3; Table 11, Formula B-I) is reported as 100 to 1000 nM and the IC50 (LCK; Table 11, Formula B-I) is reported as 100 to 1000 nM.
With CN1CCN(C(=O)c2ccc(Nc3nc(NC4CCC(NC(=O)c5ccc(C6CC6)cc5F)CC4)cnc3C(N)=O)cc2)CC1 (stereo not drawn) [Example B-15, 5-(4-(4-cyclopropyl-2-fluoro-benzamido)cyclohexyl-amino)-3-(4-(4-methylpiperazine-1-carbonyl)phenylamino) pyrazine-2-carboxamide] the IC50 (BTK-WT; Table 11, Formula B-I) was at most 100 nM, the IC50 (JAK3; Table 11, Formula B-I) was under 100 nM and the IC50 (LCK; Table 11, Formula B-I) was under 100 nM.
With CN1CCN(C(=O)c2ccc(Nc3nc(N[C@H]4CC[C@@H](NC(=O)N(C)C)CC4)cnc3C(N)=O)cc2)CC1 [Example B-16, 5-((1s,4s)-4-(3,3-dimethyl-ureido)cyclohexyl-amino)-3-(4-(4-methylpiperazine-1-carbonyl)phenylamino) pyrazine-2-carboxamide] the IC50 (BTK-WT; Table 11, Formula B-I) was at most 100 nM, the IC50 (JAK3; Table 11, Formula B-I) was 1000 to 10000 nM and the IC50 (LCK; Table 11, Formula B-I) was under 100 nM.
Compound Cc1cc(Nc2nc(N[C@@H]3CCCNC3)cnc2C(N)=O)sn1 [Example C-1, 3-[(3-methyl-1,2-thiazol-5-yl)amino]-5-{[(3R)-piperidin-3-yl]amino}pyrazine-2-carboxamide] has an IC50 (BTK-WT; Table 12, Formula C-I) of at most 100 nM, an IC50 (JAK3; Table 12, Formula C-I) of under 100 nM and an IC50 (LCK; Table 12, Formula C-I) of under 100 nM.
In the case of Cc1cc(Nc2nc(N[C@H]3CCCN(C(=O)N(C)C)C3)cnc2C(N)=O)sn1 [Example C-2, 5-{[(3S)-1-(dimethylcarbamoyl)piperidin-3-yl]amino}-3-[(3-methyl-1,2-thiazol-5-yl)amino]pyrazine-2-carboxamide], the IC50 (BTK-WT; Table 12, Formula C-I) is reported as at most 100 nM, the IC50 (JAK3; Table 12, Formula C-I) is reported as 100 to 1000 nM and the IC50 (LCK; Table 12, Formula C-I) is reported as 100 to 1000 nM.
In the case of Cc1cc(Nc2nc(N[C@@H]3CCCN(C(=O)c4ccccc4)C3)cnc2C(N)=O)sn1 [Example C-3, 5-{[(3R)-1-benzoylpiperidin-3-yl]amino}-3-[(3-methyl-1,2-thiazol-5-yl)amino]pyrazine-2-carboxamide], the IC50 (BTK-WT; Table 12, Formula C-I) is reported as at most 100 nM, the IC50 (JAK3; Table 12, Formula C-I) is reported as over 10000 nM and the IC50 (LCK; Table 12, Formula C-I) is reported as over 10000 nM.
Work on Cc1cc(Nc2nc(N[C@H]3CCCN(C(=O)c4ccc(N(C)C)cc4)C3)cnc2C(N)=O)sn1 [Example C-4, 5-{[(3S)-1-[4-(dimethylamino)benzoyl]piperidin-3-yl]amino}-3-[(3-methyl-1,2-thiazol-5-yl)amino]pyrazine-2-carboxamide] yielded an IC50 (BTK-WT; Table 12, Formula C-I) of at most 100 nM, an IC50 (JAK3; Table 12, Formula C-I) of over 10000 nM and an IC50 (LCK; Table 12, Formula C-I) of over 10000 nM.
In the case of Cc1cc(Nc2nc(N[C@@H]3CCCN(C(=O)N(C)C)C3)cnc2C(N)=O)sn1 [Example C-5, 5-([(3R)-1-(dimethylcarbamoyl)piperidin-3-yl]amino)-3-[(3-methyl-1,2-thiazol-5-yl)amino]pyrazine-2-carboxamide hydrochloride], the IC50 (BTK-WT; Table 12, Formula C-I) is reported as 100 to 1000 nM, the IC50 (JAK3; Table 12, Formula C-I) is reported as 100 to 1000 nM and the IC50 (LCK; Table 12, Formula C-I) is reported as 1000 to 10000 nM.
Cc1cc(Nc2nc(N[C@H]3CCCN(C(=O)c4ccccc4)C3)cnc2C(N)=O)sn1 [Example C-6, 5-{[(3S)-1-benzoylpiperidin-3-yl]amino}-3-[(3-methyl-1,2-thiazol-5-yl)amino]pyrazine-2-carboxamide] showed an IC50 (BTK-WT; Table 12, Formula C-I) of 1000 to 10000 nM, an IC50 (JAK3; Table 12, Formula C-I) of over 10000 nM and an IC50 (LCK; Table 12, Formula C-I) of over 10000 nM.
In the case of Cc1cc(Nc2nc(N[C@@H]3CCCN(C(=O)c4ccc(N(C)C)cc4)C3)cnc2C(N)=O)sn1 [Example C-7, 5-{[(3R)-1-[4-(dimethylamino)benzoyl]piperidin-3-yl]amino}-3-[(3-methyl-1,2-thiazol-5-yl)amino]pyrazine-2-carboxamide hydrochloride], the IC50 (BTK-WT; Table 12, Formula C-I) is reported as over 10000 nM, the IC50 (JAK3; Table 12, Formula C-I) is reported as over 10000 nM and the IC50 (LCK; Table 12, Formula C-I) is reported as over 10000 nM.
